Results: patent publication US20140243335A1, “SUBSTITUTED HYDOXAMIC ACIDS AND USES THEREOF” (Millennium Pharmaceuticals, Inc., priority 2010, published 2014)

Target: T1, purified human HDAC6 (Homo sapiens, UniProt Q9UBN7)
T1 construct: purchased BPS Bioscience 5006
T1 sequence (Q9UBN7 1-1215): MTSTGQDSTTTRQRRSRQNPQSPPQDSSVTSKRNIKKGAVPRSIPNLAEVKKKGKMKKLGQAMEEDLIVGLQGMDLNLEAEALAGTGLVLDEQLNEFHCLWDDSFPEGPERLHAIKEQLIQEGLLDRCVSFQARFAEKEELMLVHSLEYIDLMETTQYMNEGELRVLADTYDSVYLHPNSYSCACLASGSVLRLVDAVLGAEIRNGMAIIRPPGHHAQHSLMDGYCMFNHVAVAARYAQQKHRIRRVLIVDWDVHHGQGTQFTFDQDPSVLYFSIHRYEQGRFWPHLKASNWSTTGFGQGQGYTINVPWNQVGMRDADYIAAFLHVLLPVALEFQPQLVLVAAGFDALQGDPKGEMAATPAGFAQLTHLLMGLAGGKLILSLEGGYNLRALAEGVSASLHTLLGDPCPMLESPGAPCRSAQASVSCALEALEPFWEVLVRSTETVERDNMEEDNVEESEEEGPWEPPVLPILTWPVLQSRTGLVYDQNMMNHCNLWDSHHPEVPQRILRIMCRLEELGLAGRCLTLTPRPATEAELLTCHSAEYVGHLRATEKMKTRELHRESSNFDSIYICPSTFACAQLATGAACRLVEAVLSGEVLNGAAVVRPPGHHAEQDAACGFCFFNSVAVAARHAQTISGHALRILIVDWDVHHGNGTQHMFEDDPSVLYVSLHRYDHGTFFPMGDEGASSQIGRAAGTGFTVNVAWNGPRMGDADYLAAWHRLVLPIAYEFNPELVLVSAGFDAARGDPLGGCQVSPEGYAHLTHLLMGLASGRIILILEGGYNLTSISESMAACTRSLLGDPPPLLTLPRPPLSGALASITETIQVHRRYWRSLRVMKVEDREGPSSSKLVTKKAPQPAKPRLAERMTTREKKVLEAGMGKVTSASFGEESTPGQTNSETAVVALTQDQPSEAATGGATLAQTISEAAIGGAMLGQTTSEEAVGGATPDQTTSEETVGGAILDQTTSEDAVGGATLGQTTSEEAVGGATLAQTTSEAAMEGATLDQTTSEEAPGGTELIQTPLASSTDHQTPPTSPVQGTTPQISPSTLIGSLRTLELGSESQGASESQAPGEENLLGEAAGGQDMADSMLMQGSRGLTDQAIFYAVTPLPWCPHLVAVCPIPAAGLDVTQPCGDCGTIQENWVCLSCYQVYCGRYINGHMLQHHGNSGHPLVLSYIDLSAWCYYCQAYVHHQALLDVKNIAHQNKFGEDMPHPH
Test: HDAC6 Enzyme Assay
Format: biochemical
Details: HDAC6 inhibition at a compound concentration of 0.412 μM; read-out: Percent Inhibition at 0.412 μM

SMILES	inhibition at 0.412 µM [%]
COc1ccc(C(=O)NC2CCc3cc(C(=O)NO)ccc3C2)cc1 (centres unmarked) [Compound I-61, N-hydroxy-6-[(4-methoxybenzoyl)amino]-5,6,7,8-tetrahydronaphthalene-2-carboxamide]	84
COc1ccccc1C(=O)NC1CCc2cc(C(=O)NO)ccc2C1 (centres unmarked) [Compound I-122, N-hydroxy-6-[(2-methoxybenzoyl)amino]-5,6,7,8-tetrahydronaphthalene-2-carboxamide]	88
CCOC1CCc2ccc(C(=O)NO)cc2C1 (centres unmarked) [Compound I-118, 7-ethoxy-N-hydroxy-5,6,7,8-tetrahydronaphthalene-2-carboxamide]	75
O=C(NO)c1ccc2c(c1)CC(OCc1ccc(Cl)cc1)CC2 (centres unmarked) [Compound I-117, 7-[(4-chlorobenzyl)oxy]-N-hydroxy-5,6,7,8-tetrahydronaphthalene-2-carboxamide]	92
O=C(NO)c1ccc2c(c1)CCCC2 [Compound I-66, N-hydroxy-5,6,7,8-tetrahydronaphthalene-2-carboxamide]	49
O=C(NO)c1ccc2c(c1)C1CCC2N1C(=O)C12CC3CC(CC(C3)C1)C2 (centres unmarked) [Compound I-205, 9-(1-adamantylcarbonyl)-N-hydroxy-1,2,3,4-tetrahydro-1,4-epiminonaphthalene-6-carboxamide]	17
Cc1cc(C)n(CC(=O)NC2CCCc3cc(C(=O)NO)ccc32)n1 (centres unmarked) [Compound I-11, 5-{[(3,5-dimethyl-1H-pyrazol-1-yl)acetyl]amino}-N-hydroxy-5,6,7,8-tetrahydronaphthalene-2-carboxamide]	21
O=C(NO)c1ccc2c(c1)CCC[C@H]2NC(=O)c1cc2cc(Cl)ccc2o1 [Compound I-63, 5-chloro-N-{(1R)-6-[(hydroxyamino)carbonyl]-1,2,3,4-tetrahydronaphthalen-1-yl}-1-benzofuran-2-carboxamide]	18
CC(C)(C)OC(=O)N1CCC(C)(C(=O)Nc2cc(OC3CCc4cc(C(=O)NO)ccc4C3)ccn2)CC1 (centres unmarked) [Compound I-214, tert-Butyl 4-({[4-({6-[(hydroxyamino)carbonyl]-1,2,3,4-tetrahydronaphthalen-2-yl}oxy)pyridin-2-yl]amino}carbonyl)-4-methylpiperidine-1-carboxylate]	88
Cc1oc(-c2ccccc2)cc1C(=O)NC1CCc2cc(C(=O)NO)ccc2C1 (centres unmarked) [Compound I-59, N-{6-[(hydroxyamino)carbonyl]-1,2,3,4-tetrahydronaphthalen-2-yl}-2-methyl-5-phenyl-3-furamide]	56
COc1ccc(C(=O)N2C3CCC2c2cc(C(=O)NO)ccc23)cc1 (centres unmarked) [Compound I-198, N-hydroxy-9-(4-methoxybenzoyl)-1,2,3,4-tetrahydro-1,4-epiminonaphthalene-6-carboxamide]	60
O=C(NO)c1ccc2c(c1)CC(c1ccccc1)CC2 (centres unmarked) [Compound I-89, N-hydroxy-7-phenyl-5,6,7,8-tetrahydronaphthalene-2-carboxamide]	84
Cc1cc(C(=O)NC2CCc3cc(C(=O)NO)ccc3C2)c(C)n1Cc1cccs1 (centres unmarked) [Compound I-48, N-{6-[(hydroxyamino)carbonyl]-1,2,3,4-tetrahydronaphthalen-2-yl}-2,5-dimethyl-1-(2-thienylmethyl)-1H-pyrrole-3-carboxamide]	62
O=C(NO)c1ccc2c(c1)CCC(c1ccccc1C(F)(F)F)C2 (centres unmarked) [Compound I-109, N-hydroxy-6-[2-(trifluoromethyl)phenyl]-5,6,7,8-tetrahydronaphthalene-2-carboxamide]	53
CCN1CCC(C)(C(=O)Nc2cc(OC3CCc4cc(C(=O)NO)ccc4C3)ccn2)CC1 (centres unmarked) [Compound I-222, 1-ethyl-N-[4-({6-[(hydroxyamino)carbonyl]-1,2,3,4-tetrahydronaphthalen-2-yl}oxy)pyridin-2-yl]-4-methylpiperidine-4-carboxamide]	91
CC1(C)CCC(C)(C)c2cc(C(=O)NO)ccc21 [Compound I-74, N-hydroxy-5,5,8,8-tetramethyl-5,6,7,8-tetrahydronaphthalene-2-carboxamide]	20
O=C(NO)c1ccc2c(c1)CCC(NCc1ccncc1)C2 (centres unmarked) [Compound I-107, N-hydroxy-6-[(pyridin-4-ylmethyl)amino]-5,6,7,8-tetrahydronaphthalene-2-carboxamide]	84
CC1(C(=O)NC2CCc3cc(C(=O)NO)ccc3C2)CCNCC1 (centres unmarked) [Compound I-170, N-{6-[(hydroxyamino)carbonyl]-1,2,3,4-tetrahydronaphthalen-2-yl}-4-methylpiperidine-4-carboxamide]	73
CCCC(=O)N1C2CCC1c1cc(C(=O)NO)ccc12 (centres unmarked) [Compound I-207, 9-butyryl-N-hydroxy-1,2,3,4-tetrahydro-1,4-epiminonaphthalene-6-carboxamide]	25
Cn1cccc1C(=O)N1C2CCC1c1cc(C(=O)NO)ccc12 (centres unmarked) [Compound I-123, N-hydroxy-9-[(1-methyl-1H-pyrrol-2-yl)carbonyl]-1,2,3,4-tetrahydro-1,4-epiminonaphthalene-6-carboxamide]	90
O=C(NO)c1ccc2c(c1)CC(Oc1ccncc1)CC2 (centres unmarked) [Compound I-86, N-hydroxy-7-(pyridin-4-yloxy)-5,6,7,8-tetrahydronaphthalene-2-carboxamide]	91
O=C(NO)c1ccc2c(c1)CCCC2NC(=O)C1(c2ccccc2)CCCC1 (centres unmarked) [Compound I-46, N-hydroxy-5-{[(1-phenylcyclopentyl)carbonyl]amino}-5,6,7,8-tetrahydronaphthalene-2-carboxamide]	22

Second part, the molecule after the results:

inhibition at 0.412 µM [%]	SMILES
48	O=C(NO)c1ccc2c(c1)CCCC2NC(=O)c1cc2cc(Cl)ccc2o1 (centres unmarked) [Compound I-40, 5-chloro-N-{6-[(hydroxyamino)carbonyl]-1,2,3,4-tetrahydronaphthalen-1-yl}-1-benzofuran-2-carboxamide]
20	Cc1cc(C(=O)NC2CCCc3cc(C(=O)NO)ccc32)n(C(C)(C)C)n1 (centres unmarked) [Compound I-19, 1-tert-butyl-N-{6-[(hydroxyamino)carbonyl]-1,2,3,4-tetrahydronaphthalen-1-yl}-3-methyl-1H-pyrazole-5-carboxamide]
26	Cn1cccc1C(=O)N[C@H]1CCCc2cc(C(=O)NO)ccc21 [Compound I-67, N-{(1S)-6-[(hydroxyamino)carbonyl]-1,2,3,4-tetrahydronaphthalen-1-yl}-1-methyl-1H-pyrrole-2-carboxamide]
11	CC(C)(C)CC(=O)NC1CCCc2cc(C(=O)NO)ccc21 (centres unmarked) [Compound I-5, 5-[(3,3-dimethylbutanoyl)amino]-N-hydroxy-5,6,7,8-tetrahydronaphthalene-2-carboxamide]
21	O=C(CC1C[C@@H]2CC[C@H]1C2)NC1CCCc2cc(C(=O)NO)ccc21 (stereo partly drawn) [Compound I-26, 5-{[(1S,4R)-bicyclo[2.2.1]hept-2-ylacetyl]amino}-N-hydroxy-5,6,7,8-tetrahydronaphthalene-2-carboxamide]
89	O=C(NO)c1ccc2c(c1)CC(c1ccncc1)CC2 (centres unmarked) [Compound I-88, N-hydroxy-7-pyridin-4-yl-5,6,7,8-tetrahydronaphthalene-2-carboxamide]
92	CC(=O)Nc1cc(C2CCc3ccc(C(=O)NO)cc3C2)ccn1 (centres unmarked) [Compound I-97, 7-[2-(acetylamino)pyridin-4-yl]-N-hydroxy-5,6,7,8-tetrahydronaphthalene-2-carboxamide]
70	Cc1cc(C(=O)NC2CCc3cc(C(=O)NO)ccc3C2)c(C)o1 (centres unmarked) [Compound I-50, N-{6-[(hydroxyamino)carbonyl]-1,2,3,4-tetrahydronaphthalen-2-yl}-2,5-dimethyl-3-furamide]
36	O=C(NO)c1ccc2c(c1)CCCC2NC(=O)c1ccsc1 (centres unmarked) [Compound I-3, N-{6-[(hydroxyamino)carbonyl]-1,2,3,4-tetrahydronaphthalen-1-yl}thiophene-3-carboxamide]
85	O=C(NO)c1ccc2c(c1)CC(c1cccnc1)CC2 (centres unmarked) [Compound I-120, N-hydroxy-7-pyridin-3-yl-5,6,7,8-tetrahydronaphthalene-2-carboxamide]
